Entries after “also recorded” stand apart in the source; their conditions may differ.
Experiments:
[1] = Zeta potential of LNPs by laser Doppler electrophoresis in 5 mM pH 5.5 MES and 5 mM pH 7.4 HEPES buffer; type: physicochemical; settings: pH 5.5 MES and pH 7.4 HEPES buffer
Procedure: (§1) Samples of the LNPs produced in Example 2 were characterized to determine the average hydrodynamic diameter, zeta potential, and mRNA content (total and dye-accessible). The hydrodynamic diameter was determined by dynamic light scattering (DLS) using a Zetasizer model ZEN3600 (Malvern Pananalytical, UK). The zeta potential was measured in 5 mM pH 5.5 MES buffer and 5 mM pH 7.4 HEPES buffer by laser Doppler electrophoresis using the Zetasizer.

[2] = tested on: human T cells in PBMC-engrafted NSG mice; experiment: In vivo reprogramming of immune cells with DiI LNP expressing GFP in PBMC-humanized NSG mice; parameters: species or system mouse; settings: 24 h
Procedure: The NSG (NOD.Cg-Prkdcscid Il2rgtmlWjl/SzJ) mouse model was purchased from Jax Laboratories. 6-8 weeks old male mice were engrafted with 10 million PBMC of qualified donor in sterile PBS by tail vein injection. Individual body weight was monitored twice a week and blood samples were collected at appropriate interval to evaluate human immune cells engraftment.
50 μl blood was collected by tail vein bleed from each mouse. Red blood cells were lysed using Versalyse, RBC lysis solution following protocol as instructed by manufacturer (Beckman Coulter A09777). Cells were stained with hCD45 & hCD3 to determine the engraftment of human T-cells. After 15 days of PBMC injection, mice had anywhere from 30-60% huCD45+. These humanized mice were evaluated for reprogramming of immune cells by LNPs expressing DiI dye and GFP.
At time zero, mice (n=4 per group) were injected with GFP expressing DiI LNPs (by i. v. at 0.3 mg/kg or 0.1 mg/kg with appropriate buffer. At each time point, 24 or 48h depending on the example mice treated with either LNPs or buffer were sacrificed. Terminal blood and tissues collection was performed to determine DiI and GFP expression in different organs and immune cells as below.
At above specified timepoints, mice were anesthetized with CO2 before sample collection. For blood collection, the chest was opened to expose the heart. […]

[3] = Hydrodynamic diameter and polydispersity of LNPs by dynamic light scattering (DLS), Zetasizer; type: physicochemical
Procedure: as §1

SMILES: CCCCC/C=C\C/C=C\CCCCCCCC(=O)OC[C@H](CCN(C)C)OC(=O)CCCCCCC/C=C\C/C=C\CCCCC [Lipid 5]
- LNP surface charge (zeta potential), in words [1]: positive zeta potential at pH 5.5, and either near neutral or slightly negative charge at pH 7.4
- GFP expression of T cells in blood and lung ([2]; 0.1 mg/kg, CD3 (hsp34) targeted LNP, DPG-PEG-1.5%): about 25%
- in vivo reprogramming (GFP, DiI) of T cells, in words ([2]; 0.3 mg/kg (0.1 mg/kg in Example 30)): superior for reprogramming T cells
- polydispersity after antibody conjugate insertion [3]: < 0.15
- change in particle size and PDI upon conjugate insertion ([3]; insertion of anti-CD3 hSP34-PEG2k-DSPE conjugate): larger change in hydrodynamic diameter (relative to Lipid 7 LNP); also recorded: larger change in hydrodynamic diameter (relative to Lipid 8 LNP)
